# Measured values from paper PMC3788796, “The Antimicrobial Domains of Wheat Puroindolines Are Cell-Penetrating Peptides with Possible Intracellular Mechanisms of Action” (PLoS ONE, 2013).
# “And” between values parts separate entries of the source, which are not always exact repeats. Identical values can stand only once.
# How the values were obtained:
# [1] = Calcein dye leakage from bacteria-mimicking LUVs; assay type: biochemical; conditions: LUVs 10 µM phospholipid, 10 mM Tris, 100 mM NaCl pH 7.4, 5 min, fluorescence 496/515 nm, no-peptide control 28.5, average of duplicate experiments
# Method: A calcein leakage assay as previously described was performed to determine the effects of PIN-based peptides on the permeability of synthetic large unilamellar vesicles (LUVs), designed to mimic bacterial and mammalian cell membranes. The phospholipids used were DOPC (1,2-dioleoyl-sn-glycero-3-phosphocholine), with zwitterionic head groups and DOPG (1,2-dioleoyl-sn-glycerol-3-[phosphor-rac-(1-glycerol)]), with negatively charged headgroups (Avanti® Polar lipids, Alabaster, USA). These were used to make DOPC:DOPG (1∶3) LUVs to mimic bacterial cell membranes, or DOPC only, to mimic mammalian cell membranes. Calcein-entrapped LUVs were prepared by the extrusion method using an Avanti mini extrusion apparatus (Avanti® Polar Lipids, Alabaster, USA). The DOPC:DOPG (a 1∶3 mixture) or DOPC were dissolved in chloroform (25 mg/mL) and aliquoted into glass test tubes to give a concentration of 2.6 mM when resuspended in 2 mL buffer. Chloroform was evaporated under a stream of N2 and the lipid films were dried overnight under vacuum. The films were then resuspended in 2.0 mL of 70 mM calcein buffer (in 10 mM Tris-HCl, pH 7.4) and incubated at room temperature for 30 minutes. To increase entrapment of the dye, five repeated freeze\thaw cycles were used by placing the vial in liquid N2 and then a warm water bath (37°C). The lipid mixture was then extruded through the mini-extruder 10 times through two stacked 0.1 µm pore-size filters. Free calcein was removed by centrifugation (10, 000×g, 10 min) three times and washing with 10 mM Tris, 100 mM NaCl buffer (pH 7.4). Standards of phosphorus (inorganic P; Pi) were prepared (0.05–1.5 mg/mL) using KH2PO4 and read at 820 nm and a linear standard curve was generated (Figure S1 in File S1). The phospholipid concentration of the vesicle preparations was determined by a total phosphorus assay. The assay reagent was prepared fresh by mixing 1 part of 1% ascorbic acid with 6 parts of 0.42% ammonium molybdate•4H2O in H2SO4 and stored on ice. 7 µL of it was added to 3 µL of vesicle suspensions and incubated for 20 min at 45°C. […] The standard curve of phosphorus standards (Figure S1 in File S1) was used to determine the Pi concentration in a LUV preparation, and this was converted to phospholipid concentration (Table S1 in File S1) to adjust the preparations to the required 10 µM phospholipid concentration prior to peptide treatment.
# The calcein-filled LUVs were diluted with 10 mM Tris, 100 mM NaCl buffer (pH 7.4) to a final phospholipid concentration of 10 µM. The experiments were performed in a Varian Cary Eclipse fluorescence spectrophotometer with excitation and emission wavelengths of 496 nm and 515 nm, slit widths of […] and a PMT detector of 600 V. The peptides (PuroA, Pina-M, Pina-W→F and PuroB) were added to LUVs to a final peptide concentration of 8–125 µg/mL in 100 µL volumes and the fluorescence (F) monitored for 5 min at 60 s intervals. The total calcein fluorescence (FT) was determined by addition of 1.0% Triton X100. The dye leakage was calculated as % Leakage = ((F – F0)/(FT – F0)), F0 being fluorescence of each sample at T = 0.
# S. cerevisiae cells = assay: Propidium iodide uptake by yeast cells; assay type: cell-based, Saccharomyces cerevisiae; conditions: for % fluorescent cells (propidium iodide uptake): 1 h 30°C in PBS pH 7.4, PI 6 µg/mL 5 min, no-peptide control 5.7, average of 4 fields, two independent experiments
# Method: S. cerevisiae was grown overnight at 30°C in 100 mL PDB and the cells collected by centrifugation and resuspended in Phosphate Buffered Saline (PBS: 137 mM NaCl, 2.7 mM KCl, 8 mM Na2HPO4, 1.46 mM KH2PO4; pH 7.4) to ∼1.5×10^7 cells/mL (OD600 = 0.6–0.8). 75 µL of the suspension was incubated with 25 µL of stock solutions of PuroA, Pina-M, Pina-W→F, PuroB and indolicidin (to give a final peptide concentration of 64, 125, 250 or 500 µg/mL), or with PBS (for no-peptide controls) for 1 h at 30°C, followed by staining with propidium iodide (PI) as described. PI stock solution (60 µg/mL) was prepared in MilliQ water and stored in dark at −20°C. It was diluted to 12 µg/mL before use, mixed 1∶1 with peptide-treated or untreated yeast cells (to final PI concentration 6 µg/mL), and the samples incubated in the dark for 5 min. A 10 µL aliquot of these was examined using a Nikon Eclipse 50 i fluorescence microscope with 561 nm excitation and 630/22 emission filter, at 400×magnification. The photomicrographs were taken under light and fluorescence for each field. Five randomly selected fields were recorded and scored for each sample.
# [2] = test system: plasmid DNA (pBluescript SK+); assay: Gel retardation assay for in vitro DNA binding; conditions: 100 ng plasmid DNA in 10 µL MilliQ water, 1 h room temperature, peptide 16–500 µg/mL, post-electrophoresis EtBr staining, triplicate assays
# Method: This test assesses any peptide-DNA binding by noting the retardation of the rate of migration of DNA bands through agarose gels. A number of methods were tested. As per Hsu et al., DNA of a plasmid (200 ng) or a commercial molecular weight marker (50 ng) was mixed with a peptide (to final concentrations of 32, 64, 125 or 250 µg/mL) in 15 µL of 10 mM Tris-1 mM EDTA buffer (pH 8.0), incubated at room temperature for 2 min, then electrophoresed in 0.5% or 1.0% agarose gels containing 0.5 µg/mL ethidium bromide (EtBr). Following Park et al., 100 ng plasmid DNA was mixed with a peptide (to different concentrations) in 20 µL binding buffer (5% glycerol, 10 mM Tris-HCl (pH 8.0), 1 mM EDTA, 1 mM DTT, 20 mM KCl, 50 µg/mL BSA), held for 1 h at room temperature, then electrophoresed in EtBr-containing gels. Finally the protocols were modified to eliminate any interference of EtBr in the initial peptide-DNA binding. Plasmid DNA (100 ng) was mixed with a peptide (to final concentrations of 16, 32, 64, 125, 250 or 500 µg/mL) in 10 µL of MilliQ water, held at room temperature for 1 h and electrophoresed, followed by emersion of gels in EtBr solution (0.5 µg/mL) for 30 min before imaging.
# E. coli cells = conditions: data from previous work; cited from earlier work
substance,measurement,setting,value
"FPVTFRFFKFFKG-NH2 [Pina-W→F, PuroA-based peptide with all Trps substituted with Phe residues]",% Calcein leakage from DOPC:DOPG LUVs,[1]; peptide 8 µg/mL,29.2%
same,% Calcein leakage from DOPC:DOPG LUVs,[1]; peptide 16 µg/mL,32.0%
same,% Calcein leakage from DOPC:DOPG LUVs,[1]; peptide 32 µg/mL,64%
same,% Calcein leakage from DOPC:DOPG LUVs,[1]; peptide 64 µg/mL,78.0%
same,% Calcein leakage from DOPC:DOPG LUVs,[1]; peptide 125 µg/mL,81.0%
same,% fluorescent cells (propidium iodide uptake),S. cerevisiae cells; peptide 64 µg/mL,56.5%
same,% fluorescent cells (propidium iodide uptake),S. cerevisiae cells; peptide 125 µg/mL,72.3%
same,% fluorescent cells (propidium iodide uptake),S. cerevisiae cells; peptide 250 µg/mL,100%
same,% fluorescent cells (propidium iodide uptake),S. cerevisiae cells; peptide 500 µg/mL,100%
same,cells permeable to propidium iodide at sub-MIC levels,S. cerevisiae cells; peptide below its MIC against yeast,56–72%
same,cells permeable to propidium iodide at MIC levels and higher,S. cerevisiae cells; peptide equal to or greater than its MIC for yeast,100%
same,"Peptide concentration inducing gel retardation, Partial",[2],32 ± 0 µg/mL
same,"Peptide concentration inducing gel retardation, Full",[2]; complete inhibition of migration,64 µg/mL and 64 ± 0 µg/mL
same,MIC against E. coli cells,E. coli cells,32 µg/mL and 32 ± 0 µg/mL
